Results as given in patent US20140186268A1, “Oxide Ferrimagnetics with Spinel Structure Nanoparticles and Iron Oxide Nanoparticles, Biocompatible Aqueous Colloidal Systems Comprising Nanoparticles, Ferriliposomes, and Uses Thereof” (priority 2011, published 2014).

How the values were obtained:
[1] = test system: orthotopic allograft mouse breast cancer model; experiment: Doxorubicin treatment, orthotopic allograft mouse breast cancer model; type: in vivo; conditions: single dose 15 mg/kg, two weeks after administration
Description: Doxorubicin hydrochloride (Sigma) was dissolved in ferromagnetic iron oxide nanoparticles containing stabilizing buffer and then encapsulated into PEGylated liposomes. Three weeks after transplantations of primary cells (average tumour volume 75 mm^3) ferriliposomes loaded with doxorubicin were administered at a dose of 15 mg/kg (Dox+FLt, n=4). Magnets of 0.33 T (diameter 4.5 mm) were glued to the tumour by cyanoacrylate before injection and removed by acetone 24 hours after administration. Control group was treated with systemic administration of doxorubicin without any targeting (Dox, n=4). The horizontal and vertical tumour diameters were measured by digital calliper twice per week and volumes were calculated using the formula V=(a×b2)π/6 where a and b are the longer and shorter diameter of the tumour, respectively.

[2] = parameters: species or system rats; conditions: rat, in vivo, 500 mg/kg
Description: Female rats were treated with 500 mg/kg of iron oxide nanoparticles (n=16) and stabilizing buffer (n=8) as control. […] were sacrificed at day 7 and 12 after injection. Blood was collected and serum separation performed by centrifugation in Li-heparin 0.6 ml flasks (Fuji Photo Film Co., Ltd. Life Science Products Division). Biochemical parameters of creatinine, urea nitrogen, alanine transaminase, aspartate transaminase, creatine phosphokinase and total bilirubin in blood were analyzed by biochemical analyzer Fujifilm DRI CHEM 3500i (Fuji Photo Film Co., Ltd. Life Science Products Division). The kidneys, spleen, liver, heart and lung tissues were collected and fixed in 10% neutral formalin. Organs were dehydrated and maintained in paraffin blocks. 5 μm paraffin sections were stained by hematoxylin and eosin for histo-pathological analysis. iron oxide nanoparticles were detected in animal tissues by Prussian blue staining with carmine (Sigma).

In the case of COc1cccc2c1C(=O)c1c(O)c3c(c(O)c1C2=O)C[C@@](O)(C(=O)CO)C[C@@H]3O[C@H]1C[C@H](N)[C@H](O)[C@H](C)O1 [doxorubicin], the “reduction of tumour volume” value [1] is reported as 60%.

In the case of Fe3O4 [iron oxide nanoparticles], the “histo-pathological analysis of lung, liver, kidney and spleen” value [2] is reported as “No morphological changes”.
